Test results from patent US12565494B2, “Inhibitors of human respiratory syncytial virus and metapneumovirus” (priority 2022, dated 2026).
Like-named read-outs stand apart in the source and are kept apart here.

Key:
hMPV-GFP virus = assay: microbe, parasite or virus in culture; type: cell-based, Human Metapneumovirus; settings: VERO cells, hMPV-GFP MOI=1.25, 48 hrs, GFP-expressing cells counted
Method: GFP expressing rgHMPV #3 p3 was generated in Dr. Buchholz's lab (Biacchesi S. et al., J Virol. 2007 June; 81(11): 6057-6067) and propagated in VERO cells (ATCC Cat #CCL-81) with a Multiplicity of Infection (MOI) of 0.1. Virus was harvested 4 days after infection by collecting cultured material and was freeze-thaw cycled in liquid nitrogen twice. Working virus stocks were generated from thawing frozen samples in 37° C. water bath, which were centrifuged at 218 g for 15 min at 4° C. 1/10 of 10×SPG (Biological Industries 06-3061-01-5A) were added and then mixed. The supernatant was aliquoted, frozen in liquid nitrogen, and then transferred to a −80° C. freezer for storage. Virus titer was determined by performing titration test in 96-well plates and calculate approximate virus titer using GFP event/well data.
Compound plates were prepared by dispensing compounds dissolved in DMSO into wells of a 384 well Corning 3985 polystyrene flat clear bottom optical imaging microplate (202.5 nL/well) using an ECHO acoustic dispenser. Each compound was tested in 10-point serial 3-fold dilution (typical final concentrations: 40,300 nM-2 nM). […] Continuous culture of VERO cells was maintained in complete culture media (OptiMEM supplemented with 2 mM GlutaMAX™ and 100 U/ml Penicillin-Streptomycin). To set up the assay, VERO cells were trypsinized with 0.25% Trypsin-EDTA until cells were dislodged, then cells were re-suspended with 1 mL FBS. Cells were spundown at 300 g for 5 minutes and cells were washed twice with culture media and counted using default parameters on ViCell. Cells were then diluted to 100,000 cells/mL (5,000 cells/50 μL) in complete culture media+TrypLE Select (80 μL/mL). hMPV-GFP virus was added to cells at 125,000 pfu/mL (MOI=1.25) and were mixed by gentle inversion. 10 μL/well of 100% DMSO was dispensed to CellTiter-Glo (CTG) assay Max_E controls wells. Cells were dispensed at 50 μL/well using Bravo and 50 μL filtered tips into compound plates. Plates were covered with MicroClime lids and loaded with 7.5 mL of assay media to minimize evaporation. Plates were lightly shaken for 10 minutes at room temperature and then incubated at 37° C. and 5% CO2 for 48 hrs. Following incubation, distinct GFP-expressing cells were counted using an Acumen imaging system with appropriate settings. A same-well CTG assay was performed by adding 10 μL/well reconstituted CellTiter-Glo reagent (Promega G7573) and plates were read on PerkinElmer Envision according to manufacturer's instructions. Raw data were loaded and analyzed in ActivityBase. Antiviral IC50 and cytotoxicity CC50 values were determined using a 4 parameter logistic fit based on the Levenberg-Marquardt algorithm. Model: 205-4 Parameter Logistic.

RSV-A2-GFP virus = assay: microbe, parasite or virus in culture; type: cell-based, Human Respiratory Syncytial Virus; settings: Calu-1 cells, RSV-A2-GFP MOI=1.2, 96 hrs, GFP-expressing cells counted
Method: To set up the assay, ARF vials were thawed in a 37° C. water bath and a control compound was resuspended in assay media DMEM (Dulbecco's Modified Eagle Medium) containing 2% FBS, 100 U/ml Penicillin-Streptomycin.
GFP sequence was derived from pJTI™ R4 Dest CMV N-EmGFP pA Vector (Invitrogen) and was cloned into the intergenic sequence between wild-type RSV-A2 P and M genes using standard recombineering techniques. Recombinant RSV-A2-GFP was propagated in Hep2 cells (human cells contain HeLa marker chromosomes and were derived via HeLa contamination, ATCC CCL-23) with a Multiplicity of Infection (MOI) of 0.1. Virus was harvested 3 days after infection by collecting all culture material and then freeze-thawing the mixture for 5 minutes. Working virus stocks were generated by thawing frozen viral cultures in 37° C. water bath, which were centrifuged at 218 g for 15 min at 4° C. 1/10 of 10×SPG (Biological Industries 06-3061-01-5A) were added and then mixed. The supernatant was aliquoted, frozen in liquid nitrogen, and then transferred to a −80° C. freezer for storage. Virus titer was determined by automated plaque assay in HEp-2 cells following methods described previously (Wen Z. et al.; 2019).
Calu-1 cells were purchased from ATCC (Cat #HTB-54) and were expanded in growth media (DMEM containing 10% FBS, 100 U/ml Penicillin-Streptomycin). To make ARF, cell culture media was removed and discarded and the cell layer was briefly rinsed with PBS to remove serum. 2.5 mL of TrypLE Express solution were added and cells incubated until dislodged, to which growth media was added and the cells were resuspended by gentle pipetting. Cells were counted for concentration and viability as determined by ViCell. Cells were centrifuged at RT, 300 g for 5 minutes to pellet cells. The supernatant was gently aspirated and the pellet was flicked to loosen cells. Cells were resuspended in an appropriate volume of freezing medium (DMEM containing 10% DMSO, 10% FBS, 100 U/ml Penicillin-Streptomycin) to achieve a concentration of 5×10^6 cells/mL. 1 mL aliquots of the cell suspension were transferred to freezing vials. The vials were put into an upright container in a −80° C. freezer overnight before transferring vials to liquid nitrogen for storage
Assay ready freeze-down (ARF, generation described separately) Calu-1 cells (ATCC HTB-54) were used. Compound plates were prepared by dispensing compounds dissolved in DMSO into the wells of a 384 well Corning® 3985 plate with an ECHO acoustic dispenser and compounds were tested in 10-point serial 3-fold dilution. […] To set up the assay, ARF vial(s) were thawed in a 37° C. water bath and were then resuspended into assay media (DMEM containing 2% FBS, 100 U/ml Penicillin-Streptomycin). Cells were counted using default parameters on ViCell and diluted to 20,000 cells/mL in assay media. RSV-A2-GFP virus was added to cells at 24,000 pfu/ml (MOI=1.2) and mixed by gentle inversion. 10 μL/well of 100% DMSO was dispensed as CellTiter-Glo (CTG) assay Max_E controls wells. The cells were dispensed at 50 μL/well using Bravo with 50 μL filtered tips into compound plates. Plates were covered with MicroClime lids, loaded with 7.5 mL of assay media to minimize evaporation, and were incubated at 37° C. and 5% CO2 for 96 hrs. Following incubation, distinct, GFP-expressing cells were counted using an Acumen imaging system with appropriate settings. A same-well CTG assay was performed by adding 10 μL/well reconstituted CellTiter-Glo reagent (Promega G7573) and plates were read on PerkinElmer Envision according to manufacturer's instructions. Raw data were loaded and analyzed in ActivityBase. Antiviral IC50 and cytotoxicity CC50 values were determined using a 4 parameter logistic fit based on the Levenberg-Marquardt algorithm. Model: 205-4 Parameter Logistic.

[1] = Vero, 48 h, read-out: RSV EC50, Table II Summary of Activities for hMPV
[2] = human respiratory syncytial virus, Calu-1, 96 h, read-out: RSV EC50, Table I Summary of Activities for RSV
[3] = Table II Summary of Activities for hMPV, read-out: RSV EC50
[4] = Table I Summary of Activities for RSV, read-out: RSV EC50

In the case of `Cn1nc(-c2cscn2)c(F)c1C(=O)N1C[C@@H]2[C@H](C1)[C@H]2Oc1cc(C(C)(C)N)cc(-c2ccc(F)cc2)n1` [Example 25, ((1R,5S,6s)-6-((4-(2-aminopropan-2-yl)-6-(4-fluorophenyl)pyridin-2-yl)oxy)-3-azabicyclo[3.1.0]hexan-3-yl)(4-fluoro-1-methyl-3-(thiazol-4-yl)-1H-pyrazol-5-yl)methanone], the EC50 (hMPV-GFP virus; [1]) is reported as 10 to 100 nM and the EC50 (RSV-A2-GFP virus; [2]) is reported as under 10 nM.

For `Cn1nc(-c2cscn2)cc1C(=O)N1C[C@@H]2[C@H](C1)[C@H]2Oc1cc(C(C)(C)N)cc(OCC23CC(C2)C3)n1` [Example 42, ((1R,5S,6s)-6-((4-(2-aminopropan-2-yl)-6-(bicyclo[1.1.1]pentan-1-ylmethoxy)pyridin-2-yl)oxy)-3-azabicyclo[3.1.0]hexan-3-yl)(1-methyl-3-(thiazol-4-yl)-1H-pyrazol-5-yl)methanone], the EC50 (hMPV-GFP virus; [3]) was over 100 nM and the EC50 (RSV-A2-GFP virus; [4]) was under 10 nM.

In the case of `Cn1nc(-c2cscn2)cc1C(=O)N1C[C@@H]2[C@H](C1)[C@H]2Oc1cc(C(C)(C)N)cc(N2CCC(C(F)(F)F)CC2)n1` [Example 41, ((1R,5S,6s)-6-((4-(2-aminopropan-2-yl)-6-(4-(trifluoromethyl)piperidin-1-yl)pyridin-2-yl)oxy)-3-azabicyclo[3.1.0]hexan-3-yl)(1-methyl-3-(thiazol-4-yl)-1H-pyrazol-5-yl)methanone], the EC50 (hMPV-GFP virus; [3]) is reported as over 100 nM and the EC50 (RSV-A2-GFP virus; [4]) is reported as under 10 nM.

For `Cc1nc(-c2ncco2)sc1C(=O)N1C[C@@H]2[C@H](C1)[C@H]2Oc1cc(C(C)(C)N)cc(-c2ccc(F)cc2)n1` [Example 3, ((1R,5S,6s)-6-((4-(2-aminopropan-2-yl)-6-(4-fluorophenyl)pyridin-2-yl)oxy)-3-azabicyclo[3.1.0]hexan-3-yl)(4-methyl-2-(oxazol-2-yl)thiazol-5-yl)methanone], the EC50 (hMPV-GFP virus; [1]) was 10 to 100 nM and the EC50 (RSV-A2-GFP virus; [2]) was under 10 nM.

`CC(C)(N)c1cc(O[C@H]2[C@@H]3CN(C(=O)c4sc(-c5cscn5)nc4C(F)F)C[C@@H]32)nc(-c2ccc(F)cc2)c1` [Example 14] showed an EC50 (hMPV-GFP virus; [1]) of over 100 nM and an EC50 (RSV-A2-GFP virus; [2]) of under 10 nM.

Compound `Cn1nc(-c2ncsc2F)cc1C(=O)N1C[C@@H]2[C@H](C1)[C@H]2Oc1cc(C(C)(C)N)cc(-c2ccc(F)cc2)n1` [Example 20, ((1R,5S,6s)-6-((4-(2-aminopropan-2-yl)-6-(4-fluorophenyl)pyridin-2-yl)oxy)-3-azabicyclo[3.1.0]hexan-3-yl)(3-(5-fluorothiazol-4-yl)-1-methyl-1H-pyrazol-5-yl)methanone] has an EC50 (hMPV-GFP virus; [1]) of 10 to 100 nM and an EC50 (RSV-A2-GFP virus; [2]) of under 10 nM.

With `Cn1nc(-c2cscn2)cc1C(=O)N1C[C@@H]2[C@H](C1)[C@H]2Oc1cc(C(C)(C)N)cc(-c2ccc(F)cc2)n1` [Example 18, ((1R,5S,6s)-6-((4-(2-aminopropan-2-yl)-6-(4-fluorophenyl)pyridin-2-yl)oxy)-3-azabicyclo[3.1.0]hexan-3-yl)(1-methyl-3-(thiazol-4-yl)-1H-pyrazol-5-yl)methanone] the EC50 (hMPV-GFP virus; [1]) was 10 to 100 nM and the EC50 (RSV-A2-GFP virus; [2]) was under 10 nM.

With `Cc1cnc(-c2cc(C(=O)N3C[C@@H]4[C@H](C3)[C@H]4Oc3cc(C(C)(C)N)cc(-c4ccc(F)cc4)n3)n(C)n2)o1` [Example 22, ((1R,5S,6s)-6-((4-(2-aminopropan-2-yl)-6-(4-fluorophenyl)pyridin-2-yl)oxy)-3-azabicyclo[3.1.0]hexan-3-yl)(1-methyl-3-(5-methyloxazol-2-yl)-1H-pyrazol-5-yl)methanone] the EC50 (hMPV-GFP virus; [3]) was 10 to 100 nM and the EC50 (RSV-A2-GFP virus; [4]) was under 10 nM.

`Cc1nc(-c2cscn2)sc1C(=O)N1C[C@@H]2[C@H](C1)[C@H]2Oc1cc(C(C)(C)N)cc(-c2ccc(F)cc2)n1` [Example 7, ((1R,5S,6s)-6-((4-(2-aminopropan-2-yl)-6-(4-fluorophenyl)pyridin-2-yl)oxy)-3-azabicyclo[3.1.0]hexan-3-yl)(4-methyl-[2,4′-bithiazol]-5-yl)methanone] gave an EC50 (hMPV-GFP virus; [3]) of 10 to 100 nM and an EC50 (RSV-A2-GFP virus; [4]) of under 10 nM.

`Cn1nc(-c2ncco2)cc1C(=O)N1C[C@@H]2[C@H](C1)[C@H]2Oc1cc(C(C)(C)N)cc(N2CCC(C(F)(F)F)CC2)n1` [Example 40, ((1R,5S,6s)-6-((4-(2-aminopropan-2-yl)-6-(4-(trifluoromethyl)piperidin-1-yl)pyridin-2-yl)oxy)-3-azabicyclo[3.1.0]hexan-3-yl)(1-methyl-3-(oxazol-2-yl)-1H-pyrazol-5-yl)methanone] gave an EC50 (hMPV-GFP virus; [3]) of over 100 nM and an EC50 (RSV-A2-GFP virus; [4]) of under 10 nM.

`Cc1nc(-c2ccon2)sc1C(=O)N1C[C@@H]2[C@H](C1)[C@H]2Oc1cc(C(C)(C)N)cc(-c2ccc(F)cc2)n1` [Example 5, ((1R,5S,6s)-6-((4-(2-aminopropan-2-yl)-6-(4-fluorophenyl)pyridin-2-yl)oxy)-3-azabicyclo[3.1.0]hexan-3-yl)(2-(isoxazol-3-yl)-4-methylthiazol-5-yl)methanone] showed an EC50 (hMPV-GFP virus; [3]) of 10 to 100 nM and an EC50 (RSV-A2-GFP virus; [4]) of under 10 nM.

For `Cc1nc(-c2ccco2)sc1C(=O)N1C[C@@H]2[C@H](C1)[C@H]2Oc1cc(C(C)(C)N)cc(-c2ccc(F)cc2)n1` [Example 13, ((1R,5S,6s)-6-((4-(2-aminopropan-2-yl)-6-(4-fluorophenyl)pyridin-2-yl)oxy)-3-azabicyclo[3.1.0]hexan-3-yl)(2-(furan-2-yl)-4-methylthiazol-5-yl)methanone], the EC50 (hMPV-GFP virus; [3]) was 10 to 100 nM and the EC50 (RSV-A2-GFP virus; [4]) was under 10 nM.
